Patent publication US6841535B2, “Peptide-mediated transfection agents and methods of use” (Active Motif, priority 2000, dated 2005)

Assays:
Type in all cases: cell-based
[1] = tested on: human fibroblastic cell line (HS-68) and Cos-7; test: Pep-2-mediated delivery of GFP and β-Gal proteins into cells
Description: The efficiency of transfection was determined by counting fluorescent cells or blue stained cells. (A) Control of beta gal in the absence of Pep-2, (B) Pep-2 delivery of beta gal at 37 degrees C., (C) Pep-2 delivery of beta gal at 4 degrees C., (D) Pep-2 delivery of GFP at 37 degrees C. (E) concentration dependent Pep-2 delivery of GFP. Experiments were performed in the absence (open bars) or presence (dark bars) of serum.
We next evaluated the ability of Pep-2 to deliver peptides and LMW and HMW proteins into a human fibroblastic cell line (HS-68) and Cos-7. FITC-labeled Pep-A (51-mer) and Pep-B (32-mer) at a concentration of 5 10^−8 M were incubated with different concentrations of Pep-2 from 5 10^−8 M (ratio 1/1) to 2 10^−6 M (ratio 40/1), in serum-free cell culture medium for 30 minutes at 37° C. Cultured cells 0.5 to 1×10^6/35 mm^2 were then overlaid with the preformed Pep-2/peptide complexes for 30 minutes in the presence or absence of FCS. Complexes were formed prior to addition of FCS to avoid interactions between Pep-2 and serum proteins. Following this transfection step, fresh DMEM supplemented with serum was added to the cells for another 30 minutes, after which cells were extensively washed, and examined by fluorescence microscopy. […] Conversely, we observed a large decrease in the efficiency of transfection at a ratio greater than 30/1, which may be explained by either precipitation or aggregation of Pep-2/peptide complexes to the cell membrane. […] Finally, we evaluated the effect of serum in the cell culture medium on the efficiency of peptide transfection.
To investigate protein delivery we chose to monitor cell delivery of three very different types of proteins: 30 kDa GFP, 119 kDa β-Gal, and specific antibodies. […] Cells were then extensively washed prior to observation and the efficiency of protein delivery was determined by counting fluorescent cells or by monitoring enzymatic β-galactosidase activity by X-Gal staining. […]

[2] = tested on: human HS68, murine NIH 3T3 fibroblasts or cos cells; test: Cellular localization of Pep-2; settings: standard cell culture conditions; same at 4° C. or with okadaic acid
From the text: The rationale in the design of the novel peptide vector, Pep-2, for efficient protein delivery into cells was to satisfy two major requirements: the ability to cross cell membranes and high affinity for protein sequences. To this aim, we elaborated a 21 residue peptide, designated Pep-2 ([…]-cya; SEQ ID NO:7), consisting of three domains: (1) a hydrophobic Trp-rich motif containing five Trp-residues (KETWWETWWTEW (SEQ ID NO:32)), required for efficient targeting to the cell membrane and for forming hydrophobic interactions with proteins, (2) a hydrophilic Lys-rich domain (KKKRKV (SEQ ID NO:33)) derived from the NLS of SV40 large T antigen, required to improve intracellular delivery and solubility of the peptide vector, and (3) a spacer domain (Ser-Gln-Pro), separating the two domains mentioned above, containing a Pro residue, which improves the flexibility and the integrity of both the hydrophobic and the hydrophilic domains. Peptides were acetylated at their N-terminus and synthesized with a cysteamine group at their C-terminus, so as to enable coupling of fluorescent probes (for example, FITC), useful for cellular localization of the peptide. We first investigated the ability of Pep-2 to penetrate into cells and characterized its subcellular localization. […]

[3] = tested on: Jurkat T and WI 38 cells; test: Pep-2 delivery of p27(kip1), cell cycle arrest in G1 (FACS, BrDu); settings: Pep-2 alone
Description: The number of cells in the G1 phase was determined by BrDU incorporation.
The number of cells in the G1 phase was determined by FACs analysis.
p27(kip1) was expressed in E coli, and purified as a his-tagged protein. Pep-2/p27kip1 complexes were formed in PBS (500 μl of DMEM containing 50 nM of protein and 0.1 μM of Pep-2) and incubated for 30 min at 37° C. Jurkat T and WI 38 cells grown to 75% confluency were then overlaid with these preformed complexes. After 1 hr incubation at 37° C., fresh DMEM supplemented with 10% foetal calf serum was added to the cells, without removing the overlay of Pep-2/p27^Kip1, and cells were returned to the incubator for another 30 h. Experiments were performed on both non-synchronized and synchronized cells. The number of cells arrested in G1 was determined both by FACS analysis and BrDu incorporation.

[4] = tested on: HS-68 and NIH 3T3 cell lines; test: Protein delivery by vector peptides (GFP); settings: transfection of GFP; incubated with peptide at a molar ratio of 1:20; 1 h
Description: (§1) We evaluated the ability of peptides designed according to principles described herein, as well as variants thereof, to deliver peptides and proteins into HS-68 and NIH 3T3 cell lines. Peptide delivery was performed with a 32 mer peptide (peptide B), and in some cases a […] peptide (peptide A). The peptides were fluorescently labeled. Peptides (5.0×10^−8M or 5.0×10^−7M) were incubated with one micromolar vector peptide in cell culture medium in the absence of serum for 30 min. Cultured cells (0.5 to 1.0×10^6) were then overlaid with the preformed peptide/vector peptide complexes in 500 μL DMEM for one hour in the presence or absence of FCS. Complexes were formed prior to addition of FCS to avoid interactions between ep-vector and serum proteins. Following this transfection step, fresh DMEM supplemented with serum was added for another hour. Then cells were extensively washed, fixed and analyzed by fluorescence microscopy.
To investigate protein delivery we tested the delivery into cells of the fluorescent protein GFP. The protein was incubated with peptide at a molar ratio of 1:20, followed by overlay of the complex onto cultured cells. This was followed by incubation for 1 h. Then cells were extensively washed and fixed with formalin before observation.
(§2) The results of the experiments testing the transfection properties of the peptides are presented as a table in which the sequences are aligned for optimal comparison: […]

[5] = tested on: HS-68 and NIH 3T3 cell lines; test: Peptide delivery by vector peptides (fluorescently labeled peptide B / peptide A); settings: transfection of fluorescently labeled peptide; one micromolar vector peptide; 1 h
Description: as §1, §2

[6] = tested on: HS-68 and NIH 3T3 cell lines; test: Drug delivery by vector peptides (ANS and Bis-ANS); settings: transfection of ANS and Bis-ANS; incubated with peptide at a molar ratio of 1:20; 1 h
Description: For investigation of drug delivery, we used the naphthalene derivatives ANS and Bis-ANS, which have intrinsic fluorescence. The drugs was incubated with peptide at a molar ratio of 1:20, followed by overlay of the complex onto cultured cells. This was followed by incubation for 1 h. Then cells were extensively washed and observed by microscopy.
as §2

[7] = tested on: human fibroblastic cell line (HS-68) and Cos-7; test: Pep-2-mediated delivery of FITC-labeled peptides into cells
Description: (A) Pep-2-mediated delivery of Pep-A at 37 degrees C., (B) Pep-2-mediated delivery of Pep-B at 37 degrees C., (C) Pep-2-mediated delivery of Pep-A at 4 degrees C., (D) concentration dependence of Pep-2-mediated delivery of Pep-A. The efficiency of transfection was determined by counting fluorescent cells. Experiments were performed in the presence (dark bars) or absence (open bars) of serum and at 4 degrees C. (dashed bars).
We next evaluated the ability of Pep-2 to deliver peptides and LMW and HMW proteins into a human fibroblastic cell line (HS-68) and Cos-7. FITC-labeled Pep-A (51-mer) and Pep-B (32-mer) at a concentration of 5 10^−8 M were incubated with different concentrations of Pep-2 from 5 10^−8 M (ratio 1/1) to 2 10^−6 M (ratio 40/1), in serum-free cell culture medium for 30 minutes at 37° C. Cultured cells 0.5 to 1×10^6/35 mm^2 were then overlaid with the preformed Pep-2/peptide complexes for 30 minutes in the presence or absence of FCS. Complexes were formed prior to addition of FCS to avoid interactions between Pep-2 and serum proteins. Following this transfection step, fresh DMEM supplemented with serum was added to the cells for another 30 minutes, after which cells were extensively washed, and examined by fluorescence microscopy. […] Finally, we evaluated the effect of serum in the cell culture medium on the efficiency of peptide transfection.

KETWWETWWTEWSQPKKKRKV [Pep-2]
effect of 10% FCS on efficiency of protein delivery [1]: not affected | cells containing fluorescent GFP staining in their cytoplasm ([1]; 37 degrees C.): more than 80% | cells exhibiting strong and uniform β-Gal activity ([1]; X-Gal staining): All cells | subcellular localization [2]: nucleus | effect on cell cycle progression [3]: no effect on cell cycle progression | Pro [4]: 5% | Pep [5]: 5% | Drug [6]: 5% | effect of serum (FCS 10%) on efficiency of peptide delivery [7]: not affected | cells with internalized fluorescent peptide localized to the nucleus ([7]; Pep-2/Pep-A molar ratio of 20/1): more than 90%
